System: Interleukin-6 (IL-6)
Assay: Interleukin-6 (IL-6) assay: UV-stressed skin cells, IL-6 ELISA of media supernatant
Assay type: cell-based
Settings: FIG. 2; active alone at 0.0001% by weight of the composition; skin cells (keratinocytes or fibroblasts), UV dose 61,500 Joules/m^2
Protocol: Interleukin-6 (IL-6) Assay Interleukin-6 (IL-6) bioactivity in skin cells was measured. IL-6 is a cytokine and used as a biomarker for inflammation. Skin cells (keratinocytes or fibroblasts) were placed under UV stress to induce an IL-6 response in the presence of an active or blend of actives to determine the activity of that active or blend of actives in inhibiting an IL-6 response. Skin cells (keratinocytes or fibroblasts) were taken from culture, seeded in a 96-well plate at a density of 5000 cells per well in cell growth media with supplements and left to incubate for 24 hours at 37° C. Determination of cell number for the purpose of plating was performed in accordance with standard methods known in the art. After incubation, the cell growth media was replaced with 100 μl of PBS without calcium and magnesium and containing the relevant concentration of active(s) required. Controls include untreated irradiated and non-irradiated samples which require 100 μl pure PBS without calcium and magnesium or containing a maximum of 0.1%. Dimethyl sulfoxide (DMSO) was used where necessary to dissolve the active(s). Salicylic acid is the positive control for this assay. The cells were incubated with the actives for 30 minutes at 37° C. before being irradiated with a UV dose of 61,500 Joules/m^2. […]

With `CCCCCCCCCCCCCC[C@@H](O)[C@@H](O)[C@@H](N)CO.Cl` [phytosphingosine hydrochloride] the “inhibited IL-6 activity” value was 58%.
